Laboratory results: ChEMBL document CHEMBL4689842, “EUbOPEN Chemogenomics Library wave 1” (2021)

Experiments:
Format in all cases: toxicity, cell-based
HEK-293T = assay: Incucyte cell viability with HEK293T; settings: human, 10 µM, compound concentration 10 uM
Fibroblast = assay: Incucyte cell viability with human fibroblast; settings: 10 µM, compound concentration 10 uM
U2OS = assay: Incucyte cell viability with U2OS; settings: human, 10 µM, compound concentration 10 uM
[1] = 0 h, replicate number 1, timepoint 0 hours
[2] = 0 h, replicate number 2, timepoint 0 hours
[3] = 6 h, replicate number 1, timepoint 6 hours
[4] = 12 h, replicate number 1, timepoint 12 hours
[5] = 18 h, replicate number 1, timepoint 18 hours
[6] = 24 h, replicate number 1, timepoint 24 hours
[7] = 24 h, replicate number 2, timepoint 24 hours
[8] = 6 h, replicate number 2, timepoint 6 hours
[9] = 12 h, replicate number 2, timepoint 12 hours
[10] = 18 h, replicate number 2, timepoint 18 hours
Further: filed as whole numbers so only -1 and 0 and 1 occur.

SMILES | Growth Rate (HEK-293T; [1]) | Growth Rate (HEK-293T; [2]) | Growth Rate (HEK-293T; [3]) | Growth Rate (HEK-293T; [4]) | Growth Rate (HEK-293T; [5]) | Growth Rate (HEK-293T; [6]) | Growth Rate (Fibroblast; [1]) | Growth Rate (Fibroblast; [3]) | Growth Rate (Fibroblast; [4]) | Growth Rate (Fibroblast; [5]) | Growth Rate (Fibroblast; [6]) | Growth Rate (Fibroblast; [7]) | Growth Rate (U2OS; [1]) | Growth Rate (U2OS; [3]) | Growth Rate (U2OS; [8]) | Growth Rate (U2OS; [4]) | Growth Rate (U2OS; [9]) | Growth Rate (U2OS; [5]) | Growth Rate (U2OS; [6]) | Growth Rate (HEK-293T; [9]) | also measured
CCC(=O)N[C@@H]1CC[C@H](C(=O)N(C)c2ccc(-c3nc4ccccc4o3)cc2)C1 [BI 99990] | 0 | 1 | 0 | 0 | 0 | 0 | 0 | 0 | 0 | 0 | 1 | 0 | 0 | 0 | 1 | 0 | 1 | 0 | 0 | – | –
CS(=O)(=O)c1cc(C2(NC(=O)c3cncc4c3cnn4-c3ccc(F)cc3)CC2)ccn1 [BI 639667] | 0 | – | 1 | 1 | 1 | 1 | 0 | 1 | 1 | 0 | 0 | – | 0 | – | 1 | 1 | 0 | 0 | 1 | 0 | Growth Rate (HEK-293T; [8]): 0; Growth Rate (Fibroblast; [8]): 0; Growth Rate (Fibroblast; [9]): 0; Growth Rate (U2OS; [2]): 1; Growth Rate (U2OS; [10]): 1
CC(C)NCC(O)c1ccc(N)c(C#N)c1 (stereo not drawn) [CIMATEROL] | 0 | – | 0 | 0 | 0 | 0 | 0 | – | – | – | – | 1 | 0 | 1 | – | 1 | – | 0 | 1 | 1 | Growth Rate (HEK-293T; [8]): 1; Growth Rate (HEK-293T; [10]): 1; Growth Rate (Fibroblast; [9]): 1; Growth Rate (Fibroblast; [10]): 0; Growth Rate (U2OS; [10]): 1; Growth Rate (U2OS; [7]): 0
O=C(c1ccc(F)c(F)c1Nc1ccc(I)cc1F)N1CC(O)([C@@H]2CCCCN2)C1 [COBIMETINIB] | – | – | 0 | – | – | 1 | – | – | – | – | 1 | – | 0 | 0 | 1 | 0 | – | 0 | 0 | 0 | Growth Rate (HEK-293T; [10]): 1; Growth Rate (HEK-293T; [7]): 0
CN(C)CC[C@@H](c1ccc(Cl)cc1)c1ccccn1.O=C(O)/C=C\C(=O)O [DEXCHLORPHENIRAMINE MALEATE] | 0 | – | 1 | 1 | 1 | 1 | 0 | 1 | 1 | 1 | 1 | 0 | 0 | – | 0 | 1 | 0 | 0 | 1 | – | Growth Rate (HEK-293T; [8]): 0; Growth Rate (Fibroblast; [10]): 0; Growth Rate (U2OS; [7]): 0
CCCCC[C@H](O)/C=C/[C@@H]1[C@@H](C/C=C\CCCC(=O)O)[C@@H](O)C[C@H]1O [DINOPROST] | 1 | 0 | 0 | 0 | 0 | 0 | 0 | – | – | – | – | 1 | 0 | – | 0 | 1 | – | 1 | 1 | – | Growth Rate (Fibroblast; [8]): 1; Growth Rate (Fibroblast; [9]): 0; Growth Rate (Fibroblast; [10]): 1
CCC1(C2=NCCN2)Cc2ccccc2O1 (stereo not drawn) [EFAROXAN] | 1 | 0 | 1 | 1 | 1 | 1 | 0 | 0 | 0 | 0 | 0 | – | 0 | – | 1 | 0 | 1 | 0 | 1 | – | Growth Rate (Fibroblast; [2]): 1; Growth Rate (U2OS; [2]): 1
CNc1cc2[nH]c(=O)n(-c3ccc(NC(=O)NS(=O)(=O)c4ccc(Cl)s4)cc3)c(=O)c2cc1F [ELINOGREL] | 1 | 0 | 0 | 0 | 0 | 0 | 0 | – | 1 | 1 | 1 | 0 | 1 | 0 | – | 0 | 1 | 0 | 0 | 1 | Growth Rate (HEK-293T; [10]): 1; Growth Rate (HEK-293T; [7]): 1; Growth Rate (Fibroblast; [2]): 1; Growth Rate (Fibroblast; [8]): 0; Growth Rate (Fibroblast; [9]): 0; Growth Rate (Fibroblast; [10]): 0; Growth Rate (U2OS; [10]): 1; Growth Rate (U2OS; [7]): 1
